Assay results reported in patent publication US9211420B2, “Kit containing photosensitizing dyes” (Colgate-Palmolive Company, priority 2009, dated 2015).
“Also recorded” adds a separate entry of the source.

Tested on: TNFα of HEPM cells stimulated by IL-1β
Assay: Cytokine concentration in IL-1β-stimulated cell culture after light plus photosensitizing dye
Assay type: cell-based, human
Conditions: Fast Green at 1000 ppm combined with light at 625 nm for 2 minutes (9 mW/cm^2, 1.1 J/cm^2)
Procedure: Cells used in this example include human embryonic palatal mesenchymal (HEFM) cells and oral keratinocytes OBA9 cells. The embodiments also can be used with other cells such as human gingival fibroblasts (HGF). Cells were seeded in 24-well plates and cultured until reaching a confluence above 80%. The confluent-stage cells were treated with stimulants such as IL-1β followed by light irradiation alone, or light irradiation combined with GRAS photosensitizing dye. The cells were either pre-incubated in photosensitizing dye before light exposure, or administered at the same time of light exposure. The cells were incubated in photosensitizing dyes for varied amounts of time, the concentration of photosensitizing dyes were varied, and the cell were irradiated with light for varied amounts of time per exposure, as well as irradiation either one time or multiple times, as described below. After irradiation, the cells were incubated at 37° C. The cell culture media was collected after a certain amount of time for cytokine analysis. The results tabulated below reveal that visible light (various wavelength, 380-700 nm) alone and photosensitizing dye irradiated with visible light (various wavelength, 380-700 nm) have anti-inflammation effect. […]

## CCN(Cc1cccc(S(=O)(=O)[O-])c1)c1ccc(C(=C2C=CC(=[N+](CC)Cc3cccc(S(=O)(=O)[O-])c3)C=C2)c2ccc(O)cc2S(=O)(=O)[O-])cc1.[Na+].[Na+] [Fast Green, Fast Green FCF (FD&C Green No. 3)]
  Effect on TNFα concentration in the in vitro cell culture: can decrease pro-inflammation cytokine TNFα concentration; also recorded: can reduce concentration of TNFα
